Key:
common groundsel = assay: Test D common groundsel; type: in vivo, Senecio vulgaris; details: Preemergence, 0 to 100 scale
Outline: (§1)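 Greenhouse pots, sandy loam, single species per pot. Preemergence tests: soil-surface application ≤1 day after planting. Compound formulated in non-phytotoxic solvent with surfactant. Visual rating 14–21 DAT, scale 0–100.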

guineagrass = assay: Test D guineagrass; type: in vivo, Panicum maximum; details: Preemergence, 0 to 100 scale
Outline: as §1

Spanishneedles = assay: Test D Spanishneedles; type: in vivo, Bidens bipinnata; details: Preemergence, 0 to 100 scale
Outline: as §1

goosegrass = assay: Test D goosegrass; type: in vivo, Eleusine indica; details: Preemergence, 0 to 100 scale
Outline: as §1

itchgrass = assay: Test D itchgrass; type: in vivo, Rottboellia exaltata; details: Preemergence, 0 to 100 scale
Outline: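 Scoring used a 0–100 visual injury scale, with 0 meaning no effect and 100 complete control, assessed 14–21 days after application alongside untreated pots. Preemergence treatments went onto sandy loam surfaces of separately potted seeds within a day of sowing.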

windgrass = assay: Test E windgrass; type: in vivo, Apera spica-venti; details: Postemergence, Rate 62 g/ha; 0 to 100 scale
Outline: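 Greenhouse-grown plants are treated (postemergence: 1- to 4-leaf stage, sandy loam/potting mix 60:40), then evaluated visually versus untreated controls some 21 to 28 days later.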

[1] = Rate 16 g/ha, 0 no injury, 100 complete control
[2] = Rate 32 g/ha, 0 no injury, 100 complete control
[3] = Rate 64 g/ha, 0 no injury, 100 complete control
[4] = Rate 125 g/ha, 0 no injury, 100 complete control

For `CCn1c(=O)on(C(=O)N(c2ccc(F)cc2)C(C)C)c1=O` [Compound 107], the “Plant response rating, Com. groundsel” value (common groundsel; [1]) was 40, the “Plant response rating, Com. groundsel” value (common groundsel; [2]) was 75 and the “Plant response rating, Com. groundsel” value (common groundsel; [3]) was 98. The “Plant response rating, Com. groundsel” value (common groundsel; [4]) was 100, the “Plant response rating, Com. groundsel” value (common groundsel; Rate 250 g/ha) was 100 and the “Plant response rating, Com. groundsel” value (common groundsel; Rate 500 g/ha) was 100. For the same molecule, the “Plant response rating, Guineagrass” value (guineagrass; [1]) was 65, the “Plant response rating, Guineagrass” value (guineagrass; [2]) was 75 and the “Plant response rating, Guineagrass” value (guineagrass; [3]) was 100. The “Plant response rating, Guineagrass” value (guineagrass; [4]) was 100, the “Plant response rating, Guineagrass” value (guineagrass; Rate 250 g/ha) was 100 and the “Plant response rating, Guineagrass” value (guineagrass; Rate 500 g/ha) was 100. For the same molecule, the “Plant response rating, Spanishneedles” value (Spanishneedles; [1]) was 0, the “Plant response rating, Spanishneedles” value (Spanishneedles; [2]) was 0 and the “Spanishneedles plant response rating” value (Spanishneedles; [3]) was 0. The “Spanishneedles plant response rating” value (Spanishneedles; [4]) was 20, the “Plant response rating, Spanishneedles” value (Spanishneedles; Rate 500 g/ha) was 100 and the “Plant response rating, Goosegrass” value (goosegrass; [1]) was 85. The “Plant response rating, Goosegrass” value (goosegrass; [2]) was 98, the “Plant response rating, Goosegrass” value (goosegrass; [3]) was 100 and the “Plant response rating, Goosegrass” value (goosegrass; [4]) was 100. For the same molecule, the “Plant response rating, Goosegrass” value (goosegrass; Rate 250 g/ha) was 100, the “Plant response rating, Goosegrass” value (goosegrass; Rate 500 g/ha) was 100 and the “Plant response rating, Itchgrass” value (itchgrass; [1]) was 40. The “Plant response rating, Itchgrass” value (itchgrass; [2]) was 75, the “Plant response rating, Itchgrass” value (itchgrass; [3]) was 85 and the “Plant response rating, Itchgrass” value (itchgrass; [4]) was 98. For the same molecule, the “Plant response rating, Itchgrass” value (itchgrass; Rate 250 g/ha) was 100, the “Plant response rating, Itchgrass” value (itchgrass; Rate 500 g/ha) was 100 and the “Plant response rating, Windgrass” value (windgrass) was 85.

From US6737383B1, “Herbicidal oxadiazolidines” (priority 1999, dated 2004)
